Test results: article PMC3995012, “The Cyanobactin Heterocyclase Enzyme: A Processive Adenylase That Operates with a Defined Order of Reaction” (Angewandte Chemie (International Ed. in English), 2013)
Entries after “also recorded” stand apart in the source; their conditions may differ. Like-named read-outs stand apart in the source and are kept apart here.

How the values were obtained:
TruD [1] = target: T1, TruD (uncultured Prochloron sp. 06037A, UniProt B2KYG8); assay: Isothermal titration calorimetry (VP-ITC), nucleotide injected into TruD in 150 mM NaCl, 10 mM HEPES pH 7.4, 1 mM TCEP at 20 or 25 °C, fitted to a one-site model.; type: binding
T1 construct: codon-optimized full-length, N-terminal His6-tag removed by TEV protease, expressed in E. coli BL21 (DE3); homodimer with structural Zn
T1 sequence (B2KYG8 2-781): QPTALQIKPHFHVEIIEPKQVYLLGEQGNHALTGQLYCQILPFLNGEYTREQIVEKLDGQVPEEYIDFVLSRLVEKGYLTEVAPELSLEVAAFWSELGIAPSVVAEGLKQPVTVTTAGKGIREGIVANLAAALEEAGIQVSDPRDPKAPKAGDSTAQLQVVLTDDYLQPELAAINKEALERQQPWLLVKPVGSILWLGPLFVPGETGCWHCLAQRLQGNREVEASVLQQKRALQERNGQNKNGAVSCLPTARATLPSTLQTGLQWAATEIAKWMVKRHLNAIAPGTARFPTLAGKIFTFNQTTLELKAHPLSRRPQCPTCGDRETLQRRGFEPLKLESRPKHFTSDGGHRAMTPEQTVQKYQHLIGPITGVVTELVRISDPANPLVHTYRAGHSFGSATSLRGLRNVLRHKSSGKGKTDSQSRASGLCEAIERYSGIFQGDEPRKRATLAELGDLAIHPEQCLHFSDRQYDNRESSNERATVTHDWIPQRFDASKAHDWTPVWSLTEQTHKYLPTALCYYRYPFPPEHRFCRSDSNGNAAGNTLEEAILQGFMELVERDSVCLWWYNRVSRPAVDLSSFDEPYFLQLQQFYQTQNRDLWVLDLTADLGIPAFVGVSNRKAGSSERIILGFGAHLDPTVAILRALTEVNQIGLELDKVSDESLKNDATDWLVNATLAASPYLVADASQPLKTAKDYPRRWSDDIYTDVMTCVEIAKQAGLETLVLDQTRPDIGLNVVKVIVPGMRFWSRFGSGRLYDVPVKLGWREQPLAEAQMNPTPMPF
Experimental: (§1) TruD solutions. The top panels show raw data representing the response to injections, the bottom panels show integrated heats of injections (!) and the best fit (— ) to the […]
(§2) nucleoside. […]
(§3) ITC experiments were carried out using a VP-ITC instrument (MicroCal) in TruD sample buffer (150 mM NaCl, 10 mM HEPES pH 7.4, 1 mM TCEP) at 20 or 25 °C.
(§4) Protein concentrations were determined using absorbance at 280 nm and predicted extinction coefficients (ProtParam, ExPASy) used. The concentration of PatEY53A, which lacks absorbance at 280 nm, was based on absorbance at 230 nm. All solutions were dialyzed overnight. Nucleotides and the #25 peptide were dissolved in TruD sample buffer and the pH was adjusted with small amounts of 1 M NaOH to match the buffer. Cell and syringe solutions were degassed at 18 or 23 °C for 15 min.
Titrations were performed as follows: one injection of 2 µl followed by injections of 5-10 µl at an injection speed of 0.5 µl/min. The stirring speed was 307 rpm; the delay between the injections was 4-6 min. […]
(§5) NMR experiments were performed at 10 °C on a Bruker DRX500 spectrometer equipped with a 5mm TXIz probe. […] Aliquots of 646 µM TruD were added to final concentrations of 50, 100 and 150 µM, and HSQCs were recorded after each addition. For heterocyclization monitoring, the samples contained 200 µM u-15N-PatE precursor peptide and were incubated at 10 °C with 5 µM TruD in heterocyclization buffer with 5% D2O, and spectra were recorded at progressively longer intervals (initially 0.5 h, then 1 h, then 2 h). […]
For sequential assignment, a 1.0 mM sample of u-13C, 15N-PatE precursor peptide in heterocyclization buffer was prepared. […] Equivalent spectra were recorded for fully heterocyclized u-13C, 15N-PatE (concentration 1.0 mM) and a sample where the enzymatic transformation was interrupted after 8 h by gel filtration on a Superdex S75 column (GE Healthcare) in TruD sample buffer (see ITC experimental section), thus allowing assignment of the reaction intermediate. All spectra were processed with NMRPipe ,$- and analyzed with CCPN Analysis 2.1 ,%-. […]

TruD [2] = assay: ITC, injection of nucleosides into TruD solutions; type: binding, Prochloron spp.; conditions: for Kd: one-site model
Experimental: as §1, §2, §3, §4
Titrations were performed as follows: one injection of 2 µl followed by injections of 5-10 µl at an injection speed of 0.5 µl/min. The stirring speed was 307 rpm; the delay between the injections was 4-6 min. To take into account heats of dilution, blank titrations were performed by injecting ligand solution into TruD sample buffer and the averaged heat of dilution was subtracted from the main experiment. Blank titrations were omitted in cases of saturated binding where the averaged residual signal of the last injections was used to determine the heat of dilution. Raw data were processed using MicroCal Origin software. […]
as §5
For sequential assignment, a 1.0 mM sample of u-13C, 15N-PatE precursor peptide in heterocyclization buffer was prepared. […] Equivalent spectra were recorded for fully heterocyclized u-13C, 15N-PatE (concentration 1.0 mM) and a sample where the enzymatic transformation was interrupted after 8 h by gel filtration on a Superdex S75 column (GE Healthcare) in TruD sample buffer (see ITC experimental section), thus allowing assignment of the reaction intermediate. All spectra were processed with NMRPipe ,$- and analyzed with CCPN Analysis 2.1 ,%-.
31P NMR experiments were performed at 10 °C on a Bruker AVANCE III spectrometer equipped with a 5mm BBFO+ (Smart) probe and required the substitution of sample buffer TCEP with DTT. […] 31P NMR spectra were recorded with broadband power-gated 1H decoupling and relaxation delay D1 = 1.5s. […]

TruD [3] = assay: Heterocyclization reactions analysed by MS (ESI, MALDI, fragmentation); type: biochemical, Prochloron spp.; conditions: for use as nucleotide cofactor for heterocyclization of PatE2 by TruD: PatE2 with TruD, LC-MS and HSQC NMR of products
Experimental: for 20 min followed by passage through a 0.45 "m filter. The cleared lysate was applied to a Ni-sepharose FF column (GE Healthcare) equilibrated with urea lysis buffer and protein eluted with urea lysis buffer containing 250 mM imidazole. The eluate was then supplemented with 10 mM DTT and incubated at room temperature for 30 min before size-exclusion chromatography (Superdex 75, GE Healthcare) in 150 mM NaCl, 10 mM HEPES pH 7.4, 1 mM TCEP. Peak fractions were pooled and […]
PatE for NMR studies was produced as above, except that E. coli were grown in M9 minimal medium ,*- prepared with 15NH4Cl (Sigma) and additionally with 13C6-glucose (Sigma) for doubly labeled protein. Cells were grown to an optical density at 600 nm of 0.6, at which point expression was induced by addition of 0.5 mM IPTG and grown over night at 30 °C.
Heterocyclization reactions
For all heterocyclization reactions for MS analysis, 100 µM substrate (PatE, PatE mutants and peptides) was incubated with 0.5 µM enzyme in heterocyclization buffer (150 mM NaCl, 10 mM HEPES pH 7.4, 1 mM TCEP, 5 mM ATP, 5 mM MgCl2) for 60 min, 70 min or 16 h at 37 °C. Samples were analyzed by ESI or MALDI MS (LCT, Micromass or 4800 MALDI TOF/TOF Analyzer, ABSciex). […]
For heterocyclization reactions to be monitored by NMR the PatE concentration was increased to 200 µM and 5 µM TruD was used and the incubation temperature reduced to 10 °C. For reaction endpoints analyzed by 31P NMR samples were […]
The assay is based on coupling the TruD-dependent formation of AMP to the lactate dehydrogenase oxidation decay of NADH with NADH concentration monitored by 340 nm absorbance. […]
each added to the assay in this order. […] The decay of NADH concentration were recorded for 40 min and calculated by using extinction coefficient for NADH (#340 = […]
MALDI MS was acquired using a 4800 MALDI TOF/TOF Analyzer (ABSciex, Foster City, CA) equipped with a Nd:YAG 355 nm laser in linear mode and calibrated using the [M+H]+ and [M+2H]2+ peaks of ubiquitin. The spot was analyzed in positive MS mode between 3000 and 10000 m/z, by averaging 1000 laser spots. […]

[4] = VP-ITC, 150 mM NaCl, 10 mM HEPES pH 7.4, 1 mM TCEP, 20 or 25 °C, read-out: KD

Nc1ncnc2c1ncn2[C@@H]1O[C@H](COP(=O)(O)OP(=O)(O)O)[C@@H](O)[C@H]1O [ADP, adenosine 5'-diphosphate] gave a Kd (TruD [1]; read-out: KD) of 20 µM.
With Nc1ncnc2c1ncn2[C@@H]1O[C@H](COP(=O)(O)OP(=O)(O)O)[C@@H](O)[C@H]1O [ADP] the Kd (TruD [2]; ADP decomposes slowly, only the rapidly emerging endothermic parts of the ITC signals analysed, read-out: apparent KD) was 20 µM.
Nc1ncnc2c1ncn2[C@@H]1O[C@H](COP(=O)(O)O)[C@@H](O)[C@H]1O [AMP, adenosine 5'-monophosphate] was tested, and the Kd (TruD [1]; read-out: KD) was 12 µM.
Molecule Nc1ncnc2c1ncn2[C@@H]1O[C@H](COP(=O)(O)O)[C@@H](O)[C@H]1O [AMP] has a Kd (TruD [2]; [4]) of 12 µM.
Nc1ncnc2c1ncn2[C@@H]1O[C@H](COP(=O)(O)OP(=O)(O)OP(=O)(O)O)[C@@H](O)[C@H]1O [ATP, adenosine 5'-triphosphate] was tested, and the Kd (TruD [1]) was 19 µM.
Work on Nc1ncnc2c1ncn2[C@@H]1O[C@H](COP(=O)(O)OP(=O)(O)OP(=O)(O)O)[C@@H](O)[C@H]1O [ATP] yielded a Kd (TruD [2]; [4]) of 19 µM.
With Nc1nc2c(ncn2[C@@H]2O[C@H](COP(=O)(O)OP(=O)(O)OP(=O)(O)O)[C@@H](O)[C@H]2O)c(=O)[nH]1 [GTP] the “use as nucleotide cofactor for heterocyclization of PatE2 by TruD” value (TruD [3]) was “can catalyze heterocyclization of cysteine”.
With Cc1cn([C@H]2C[C@H](O)[C@@H](COP(=O)(O)OP(=O)(O)OP(=O)(O)O)O2)c(=O)[nH]c1=O [dTTP] the “binding to TruD in ITC experiments” value (TruD [2]; injection into a TruD solution) was “not report binding under these conditions; also recorded: does not bind” and the “use as nucleotide cofactor for heterocyclization of PatE2 by TruD” value (TruD [3]) was “can catalyze heterocyclization of cysteine”.
With “ITACITFC [core peptide, the eight-residue core peptide itself]” the “processing (heterocyclization of cysteines) by TruD” value (TruD [3]; 100 µM substrate, 0.5 µM enzyme, 150 mM NaCl, 10 mM HEPES pH 7.4, 1 mM TCEP, 5 mM ATP, 5 mM MgCl2, 60 min, 70 min or 16 h at 37 °C, ESI or MALDI MS) was “No reaction”.
